Assay results taken from patent US20100120618A1, “HERBICIDAL COMPOSITION” (SYNGENTA CROP PROTECTION, INC., priority 2007, published 2010).

Assays:
Avena = test: Post-emergence test, herbicidal activity on Avena; assay type: in vivo; details: 21 days after application, average of 3 tests
From the text: (§1) The test plants (Avena and winter wheat) are raised under greenhouse conditions in seed trays to a post-application stage (1.5- to 2-leaf stage). Pinoxaden is then applied to the test plants either alone or in admixture with component b) and optionally c). For both applications an additive is used which contains per litre 45% by weight Agnique ME 18 RD-F and 25% by weight Emulsogen M in Solvesso 200 ND. Application of pinoxaden is effected in the form of an emulsifiable concentrate (EC 100), and component b) and optionally c) is used in the form of WP 25. Those formulations are used to prepare spray mixtures, each of 200 litres, which contain 50 g or 100 g of pinoxaden and component b) and optionally c) and in each case 0.5% of additive (based on the volume of the spray mixtures). The tests are evaluated 21 days after application (herbicidal activity 100%=plant completely dead; herbicidal activity 0%=no phytotoxic action on the plant). The results, which are values averaged from 3 tests, are compiled in the following Table.

winter wheat = test: Post-emergence test, herbicidal activity on winter wheat; assay type: in vivo; details: 21 days after application, average of 3 tests
From the text: as §1

[1] = 100 g/ha pinoxaden + 0.5% additive

CCc1cc(C)cc(CC)c1-c1c(OC(=O)C(C)(C)C)n2n(c1=O)CCOCC2 [pinoxaden]
Herbicidal activity on Avena (Avena; 50 g/ha pinoxaden + 0.5% additive, 100%=plant completely dead): 82% | Herbicidal activity on Avena (Avena; [1]): 87% | Herbicidal activity on Winter wheat (winter wheat; 50 g/ha pinoxaden + 0.5% additive, 0%=no phytotoxic action): 8% | Herbicidal activity on Winter wheat (winter wheat; [1]): 8%
